Test results: PMC12316058 (Nature chemical biology, 2024)

Assays:
Cs (R)-Bdh = target: T1, Cs (R)-Bdh (Clostridium saccharoperbutylacetonicum, UniProt M1MWX5); test: specific activity, absorbance at […] nm; format: biochemical; settings: 10 mM m-BDO, 4 mM NADP+, 50 mM glycine-NaOH pH 10.0
T1 sequence (M1MWX5 1-361): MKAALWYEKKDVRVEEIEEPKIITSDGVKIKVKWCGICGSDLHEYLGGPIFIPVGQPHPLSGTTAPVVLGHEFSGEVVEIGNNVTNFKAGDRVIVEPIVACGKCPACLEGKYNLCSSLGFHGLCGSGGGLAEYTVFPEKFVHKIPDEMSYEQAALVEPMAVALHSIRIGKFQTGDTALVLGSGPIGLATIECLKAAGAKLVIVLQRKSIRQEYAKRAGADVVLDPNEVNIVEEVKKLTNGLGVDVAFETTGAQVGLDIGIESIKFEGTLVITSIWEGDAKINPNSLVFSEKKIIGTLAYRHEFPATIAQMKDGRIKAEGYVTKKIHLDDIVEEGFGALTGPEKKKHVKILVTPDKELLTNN

Ll Nox = target: T2, Ll Nox (Lactococcus cremoris, UniProt A2RIB7); test: absorbance at […] nm, initial rates; format: biochemical; settings: 50 mM Tris-Cl pH 7.0, 37 °C; O2 as acceptor
T2 sequence (A2RIB7 1-446): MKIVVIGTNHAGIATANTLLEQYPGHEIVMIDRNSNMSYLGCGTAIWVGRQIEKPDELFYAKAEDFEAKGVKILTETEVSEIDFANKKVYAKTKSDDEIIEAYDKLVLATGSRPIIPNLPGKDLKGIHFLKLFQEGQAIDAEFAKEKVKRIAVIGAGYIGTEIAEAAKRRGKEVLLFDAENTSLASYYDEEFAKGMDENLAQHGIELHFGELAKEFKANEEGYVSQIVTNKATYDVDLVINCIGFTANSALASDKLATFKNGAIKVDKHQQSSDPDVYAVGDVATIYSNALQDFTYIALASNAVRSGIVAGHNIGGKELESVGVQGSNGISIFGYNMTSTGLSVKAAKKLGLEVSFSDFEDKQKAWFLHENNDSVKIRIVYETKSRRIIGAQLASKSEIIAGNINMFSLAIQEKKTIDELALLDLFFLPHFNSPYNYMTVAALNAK

SMILES	specific activity (Cs (R)-Bdh)	kcat/Km app (Ll Nox)
NC(=O)c1ccc[n+]([C@@H]2O[C@H](COP(=O)(O)OP(=O)(O)OC[C@H]3O[C@@H](n4cnc5c(N)ncnc54)[C@H](OP(=O)(O)O)[C@@H]3O)[C@@H](O)[C@H]2O)c1 [NADP+]	We subsequently confirmed specific activity with NADP^+	–
NC(=O)C1=CN([C@@H]2O[C@H](COP(=O)(O)O)[C@@H](O)[C@H]2O)C=CC1 [NMNH]	–	Ll Nox WT (gray) and Nox Ortho (yellow) toward NADH, NADPH and NMNH
